# Experimental data taken from patent US20260297542A1, “HERBICIDE RESISTANT PLANTS” (SYNGENTA CROP PROTECTION AG, priority 2023, published 2026).
# Positions count from the first letter of the chain named.
# What was measured:
# [1] = biological target: T1, AtPPO1 S305L Y426M (SEQ ID NO.124) (Arabidopsis thaliana, UniProt P55826, S305L/Y426M); assay: fluorescent Protoporphyrinogen Oxidase assay, crude extract; type: biochemical; settings: read-out: percentage inhibition
# T1 construct: made in house; host or cells: E. coli BL21 (DE3) hemG, crude extract
# T1 sequence (P55826 35-537 S305L/Y426M): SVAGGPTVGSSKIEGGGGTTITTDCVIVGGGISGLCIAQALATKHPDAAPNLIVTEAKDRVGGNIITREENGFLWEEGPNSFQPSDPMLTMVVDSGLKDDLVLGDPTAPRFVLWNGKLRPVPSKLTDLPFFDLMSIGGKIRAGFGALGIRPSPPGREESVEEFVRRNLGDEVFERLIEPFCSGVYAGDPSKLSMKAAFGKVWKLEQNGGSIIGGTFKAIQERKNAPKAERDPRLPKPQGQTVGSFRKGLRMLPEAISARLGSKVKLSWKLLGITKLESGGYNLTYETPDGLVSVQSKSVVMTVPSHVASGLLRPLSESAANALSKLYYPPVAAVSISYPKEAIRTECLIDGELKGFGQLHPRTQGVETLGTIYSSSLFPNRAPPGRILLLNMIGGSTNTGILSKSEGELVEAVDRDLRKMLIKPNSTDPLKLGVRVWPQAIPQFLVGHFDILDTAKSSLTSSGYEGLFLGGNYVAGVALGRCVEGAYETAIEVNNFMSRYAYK
# [2] = biological target: T2, AtPPO1 S305L G404A L479N (SEQ ID NO.137) (Arabidopsis thaliana, UniProt P55826, G404A/L479N/S305L); assay: as above; type: biochemical; settings: read-out: percentage inhibition
# T2 construct: made in house; host or cells: E. coli BL21 (DE3) hemG, crude extract
# T2 sequence (P55826 35-537 S305L/G404A/L479N): T1 sequence (P55826 35-537 S305L/Y426M) with G370A, M392Y, L445N
SMILES,inhibition at 0.1 ppm [1],inhibition at 1 ppm [1],inhibition at 10 ppm [1],inhibition at 100 ppm [1],inhibition at 0.1 ppm [2],inhibition at 1 ppm [2],inhibition at 10 ppm [2],inhibition at 100 ppm [2]
"CCOC(=O)[C@]1(C)CC(c2cc(-n3c(=O)n(C)c(=S)n(C)c3=O)c(F)cc2Cl)=NO1 [Herbicide D, ethyl (5S)-3-[2-chloro-5-(3,5-dimethyl-2,6-dioxo-4-thioxo-1,3,5-triazinan-1-yl)-4-fluoro-phenyl]-5-methyl-4H-isoxazole-5-carboxylate]",53%,85%,100%,100%,12%,58%,98%,100%
"CCOC(=O)C1(C)CC(c2cc(-n3c(=O)cc(C(F)(F)F)n(C)c3=O)c(F)cc2Cl)=NO1 (stereo not shown) [Herbicide C, 3-(2-chloro-4-fluoro-5-(3-methyl-2,6-dioxo-4-trifluoromethyl-3,6-dihydropyrimidin-1(2H)-yl)phenyl)-5-methyl-4,5-dihydroisoxazole-5-carboxylic acid ethyl ester]",77%,88%,100%,100%,26%,90%,100%,100%
"CCOC(=O)COc1ncccc1Oc1cc(-n2c(=O)cc(C(F)(F)F)n(C)c2=O)c(F)cc1Cl [Herbicide A, epyrifenacil]",34%,82%,100%,100%,24%,93%,100%,100%
"C#CCN1C(=O)C(F)(F)Oc2cc(F)c(-n3c(=O)n(C)c(=S)n(C)c3=O)cc21 [Herbicide B, trifludimoxazin]",100%,100%,100%,100%,77%,98%,100%,100%
"CC(C)N(C)S(=O)(=O)NC(=O)c1cc(-n2c(=O)cc(C(F)(F)F)n(C)c2=O)c(F)cc1Cl [Herbicide E, saflufenacil]",38%,78%,100%,96%,22%,66%,100%,96%
